Measurements published in patent publication US10449208B2, “Antiviral prodrugs of tenofovir” (Merck Sharp & Dohme Corp., priority 2016, dated 2019).
Where two headings read alike, the source gives them in different places.

Assays:
HIV-1 (H9/IIIB strain) = experiment: Multiple round HIV-1 infection assay (Viking assay) in MT4-GFP cells; assay type: cell-based; conditions: MT4-GFP cells infected with HIV-1 H9/IIIB, inhibition of reproductive ratio R0
Method: Assessing Antiviral Potency in a Multiple Round HIV-1 Infection Assay (Viking Assay)
The antiviral activity of the tenofovir prodrugs of the Examples herein was assessed in an assay that measures the rate of replication of HIV in cell culture, termed the Viking assay (Viral KINetics in Green cells) and performed as follows. HIV-1 replication was monitored using MT4-gag-GFP clone D3 (hereafter designated MT4-GFP), which are MT-4 cells modified to harbor a GFP reporter gene, the expression of which is dependent on the HIV-1 expressed proteins tat and rev. Productive infection of an MT4-GFP cell with HIV-1 results in GFP expression approximately 24 h post-infection. MT4-GFP cells were maintained at 37° C./5% CO2/90% relative humidity in RPMI 1640 supplemented with 10% fetal bovine serum, 100 μ/ml penicillin/streptomycin, and 400 μg/ml G418 to maintain the reporter gene. For infections, MT4-GFP cells were placed in the same medium lacking G418 and infected overnight with HIV-1 (H9/IIIB strain) virus at an approximate multiplicity of infection of 0.01 in the same incubation conditions. Cells were then washed and re-suspended in either RPMI 1640 supplemented with 10% or 50% normal human serum (NFIS) at 1.6×10^5 cells/mL (10% NHS or 50% NHS, respectively). Compound plates were prepared by dispensing compounds dissolved in DMSO into wells of 384 well poly-D -lysine-coated plates (0.2 μl/well) using an ECHO acoustic dispenser. Each compound was tested in a 10-point serial 3-fold dilution (typical final concentrations: 8.4 μM-0.42 nM). Controls included no inhibitor (DMSO only) and a combination of three antiviral agents (efavirenz, indinavir, an in-house integrase strand transfer inhibitor at final concentrations of 4 μM each). Cells were added (50 μL/well) to compound plates and the infected cells were maintained at 37° C./5% CO2/90% relative humidity.
infected cells were quantified at two time points, ˜48 h and ˜72 h post -infection, by counting the number of green cells in each well using an Acumen eX3 scanner. The increase in the number of green cells over ˜24 h period gives the reproductive ratio, R0, which is typically 5-15 and has been shown experimentally to be in logarithmic phase (data not shown). Inhibition of R0 is calculated for each well, and IC50s determined by non-linear 4-parameter curve fitting.

[1] = Prodrug stability assay in bio-relevant media (FaSSIF with Pancreatin, simulated gastrointestinal tract conditions); assay type: in vitro ADME; conditions: % parent prodrug remaining at 5 h vs 0 h, 37° C., 0.5 mg/mL Pancreatin in FaSSIF, HPLC area ratio
Method: Prodrug Stability Assay in Bio-Relevant Media
The following assay was employed to evaluate the stability of the prodrugs in simulated gastrointestinal tract conditions. Preparation of fasted state simulated intestinal fluid (FaSSIF) using Phares SIF Powder was carried out according to protocols from Phare Drug Delivery AG (Baselland, Switzerland). For sample preparation, 10 μL stock solutions (10 mM) of prodrug substance in DMSO was added to 990 μL of 0.5 mg/mL Pancreatin solution (Fisher CAS#8049-47-6) in FaSSIF. Two samples were prepared for each compound at initial. If the sample was clear solution at the beginning, ran one sample directly as initial by HPLC; if the sample was not clear at starting, diluted the sample by 100% ACN. Put the other sample under 37° C. and observed the sample at 5 h time-point. At 5 h time point, if the sample was clear solution then performed HPLC analysis directly; if it was not clear solution, diluted the sample by 100% ACN and assayed by HPLC. All the samples were vortexed for 3 min and observed before injection. For the diluted samples, the area will be multiplied by a factor when data analysis. The analysis was carried out with an Agilent 1100 series HPLC with autosampler. The column was usually a Poroshell 120 EC -C18, 4.6×50 mm, 2.7 μm. The flow rate was 1.8 mL/min, and the injection volume was 5 or 10 μL. UV detection was in the range 210-400 nm. The mobile phase consisted of solvent A (water plus 10 mM tetrabutylammonium bromide) and solvent B (acetonitrile) with a gradient of 90% solvent A at 0 min changing to 95% solvent B over 6 min, maintained for 1.5 min, then reverting to 90% solvent A over 1.6 min. The area of the parent in prodrug at 5h time point was divided by the area of the parent in prodrug at 0 h time point, to generate the % claimed parent ratio, which are summarized in Table 2 for GI Tract stability.

[2] = Human immunodeficiency virus 1, IIIB, 10% normal human serum, read-out: Viking, IC50 (10% NHS)
[3] = Human immunodeficiency virus 1, IIIB, 50% normal human serum, read-out: Viking, IC50 (50% NHS)
[4] = 50% normal human serum, read-out: Viking, IC50 (50% NHS)
[5] = 10% normal human serum, read-out: Viking, IC50 (10% NHS)

SMILES	IC50 (HIV-1 (H9/IIIB strain); [2]) [µM]	IC50 (HIV-1 (H9/IIIB strain); [3]) [µM]	GI Tract stability [1] [%]	IC50 (HIV-1 (H9/IIIB strain); [4]) [µM]	IC50 (HIV-1 (H9/IIIB strain); [5]) [µM]
CC(C)OC(=O)COP(=O)(CO[C@H](C)Cn1cnc2c(N)ncnc21)NC(C)(C)C(=O)OCc1ccccc1 (mixture of isomers) [Example 42, Benzyl 2-((((((R)-1-(6-amino-9H-purin-9-yl)propan-2-yl)oxy)methyl)(2-isopropoxy-2-oxoethoxy)phosphoryl)amino)-2-methylpropanoate]	0.005	0.0218	73.54	–	–
CC(C)OC(=O)[C@H](C)OP(=O)(CO[C@H](C)Cn1cnc2c(N)ncnc21)NC(C)(C)C(=O)OC(C)C (single isomer, unassigned) [Example 1A]	0.0147	–	85.74	0.0611	–
CC(C)OC(=O)[C@H](C)OP(=O)(CO[C@H](C)Cn1cnc2c(N)ncnc21)NC(C)(C)C(=O)OC(C)C (single isomer, unassigned) [Example 1B]	–	–	99.82	0.0121	0.00743
CCCCCOC(=O)C(C)(C)NP(=O)(CO[C@H](C)Cn1cnc2c(N)ncnc21)O[C@@H](C)C(=O)OC(C)C (single isomer, unassigned) [Example 2A]	–	–	61.61	0.0221	0.00405
CCCCCOC(=O)C(C)(C)NP(=O)(CO[C@H](C)Cn1cnc2c(N)ncnc21)O[C@@H](C)C(=O)OC(C)C (single isomer, unassigned) [Example 2B]	–	–	91.95	0.0709	0.0182
CC(C)OC(=O)COP(=O)(CO[C@H](C)Cn1cnc2c(N)ncnc21)NC(C)(C)C(=O)OC(C)C (single isomer, unassigned) [Example 3A]	0.0366	–	96.63	0.121	–
CC(C)OC(=O)COP(=O)(CO[C@H](C)Cn1cnc2c(N)ncnc21)NC(C)(C)C(=O)OC(C)C (single isomer, unassigned) [Example 3B]	–	–	95.71	0.0479	0.0291
CCCCCOC(=O)C(C)(C)NP(=O)(CO[C@H](C)Cn1cnc2c(N)ncnc21)OCC(=O)OC(C)C (single isomer, unassigned) [Example 4A]	0.0139	0.0866	99.07	–	–
CCCCCOC(=O)C(C)(C)NP(=O)(CO[C@H](C)Cn1cnc2c(N)ncnc21)OCC(=O)OC(C)C (single isomer, unassigned) [Example 4B]	–	–	98.87	0.158	0.0194
CCCCCCOC(=O)C(C)(C)NP(=O)(CO[C@H](C)Cn1cnc2c(N)ncnc21)OCC(=O)OC(C)C (single isomer, unassigned) [Example 6A]	0.00314	0.0152	95.97	–	–
CCCCCCOC(=O)C(C)(C)NP(=O)(CO[C@H](C)Cn1cnc2c(N)ncnc21)OCC(=O)OC(C)C (single isomer, unassigned) [Example 6B]	–	–	73.16	0.00799	0.00214
CCCCCCOC(=O)C(C)(C)NP(=O)(CO[C@H](C)Cn1cnc2c(N)ncnc21)O[C@@H](C)C(=O)OC(C)C (single isomer, unassigned) [Example 7A]	–	–	15.36	0.021	0.00503
CCCCCCOC(=O)C(C)(C)NP(=O)(CO[C@H](C)Cn1cnc2c(N)ncnc21)O[C@@H](C)C(=O)OC(C)C (single isomer, unassigned) [Example 7B]	–	–	76.64	0.00101	0.00037
CCCCCOC(=O)COP(=O)(CO[C@H](C)Cn1cnc2c(N)ncnc21)NC(C)(C)C(=O)OC(C)C (single isomer, unassigned) [Example 8A]	–	–	94.11	0.027	0.00676
CCCCCOC(=O)COP(=O)(CO[C@H](C)Cn1cnc2c(N)ncnc21)NC(C)(C)C(=O)OC(C)C (single isomer, unassigned) [Example 8B]	–	–	71.6	0.161	0.0227
CCCCCCOC(=O)C(C)(C)NP(=O)(CO[C@H](C)Cn1cnc2c(N)ncnc21)O[C@H](C)C(=O)OC(C)C (single isomer, unassigned) [Example 9B]	–	–	6.16	0.00278	0.001
CC(C)OC(=O)[C@H](C)OP(=O)(CO[C@H](C)Cn1cnc2c(N)ncnc21)NC(C)(C)C(=O)OC1CCCCC1 (single isomer, unassigned) [Example 12A]	0.00571	0.0252	98.95	–	–
CC(C)OC(=O)C(C)(C)NP(=O)(CO[C@H](C)Cn1cnc2c(N)ncnc21)O[C@@H](C)C(=O)OC1CCCC1 (single isomer, unassigned) [Example 13A]	0.00617	0.0511	70.30	–	–
CC(C)OC(=O)C(C)(C)NP(=O)(CO[C@H](C)Cn1cnc2c(N)ncnc21)O[C@@H](C)C(=O)OC1CCCC1 (single isomer, unassigned) [Example 13B]	–	–	99.72	0.0602	0.00944
CC(C)OC(=O)COP(=O)(CO[C@H](C)Cn1cnc2c(N)ncnc21)NC(C)(C)C(=O)OC1CCC1 (single isomer, unassigned) [Example 17B]	–	–	99.32	0.0184	0.0067
CC(C)OC(=O)[C@H](C)OP(=O)(CO[C@H](C)Cn1cnc2c(N)ncnc21)NC(C)(C)C(=O)OC1CCCC1 (single isomer, unassigned) [Example 18A]	–	0.0165	76.31	–	0.00659
CC(C)OC(=O)[C@H](C)OP(=O)(CO[C@H](C)Cn1cnc2c(N)ncnc21)NC1(C(=O)OC(C)C)CCCC1 (stereo partly drawn) [Example 48, Isopropyl 1-((((((R)-1-(6-amino-9H-purin-9-yl)propan-2-yl)oxy)methyl)(((S)-1-isopropoxy-1-oxopropan-2-yl)oxy)phosphoryl)amino)cyclo-pentane-1-carboxylate]	0.0133	0.0373	–	–	–
CC(C)OC(=O)[C@H](C)OP(=O)(CO[C@H](C)Cn1cnc2c(N)ncnc21)NC1(C(=O)OC(C)C)CCC1 (stereo partly drawn) [Example 50, Isopropyl 1-((((((R)-1-(6-amino-9H-purin-9-yl)propan-2-yl)oxy)methyl)(((S)-1-isopropoxy-1-oxopropan-2-yl)oxy)phosphoryl)amino)cyclo-butane-1-carboxylate]	0.00866	0.0343	–	–	–
CC(C)OC(=O)[C@H](C)OP(=O)(CO[C@H](C)Cn1cnc2c(N)ncnc21)NC1(C(=O)OC(C)C)CCCCC1 (stereo partly drawn) [Example 52, Isopropyl 1-((((((R)-1-(6-amino-9H-purin-9-yl)propan-2-yl)oxy)methyl)(((S)-1-isopropoxy-1-oxopropan-2-yl)oxy)phosphoryl)amino)cyclo-hexane-1-carboxylate]	0.0108	0.0456	–	–	–
